ChEMBL document CHEMBL3046109, “A Method for Monitoring the Sensitivity of Botrytis cinerea to Mepanipyrim” (2004)

Columns and labels:
Assay type in all cases: functional
Botrytis cinerea [1] = assay: Fungicidal activity against anilinopyrimidine-resistant Botryotinia fuckeliana CH12.92 infected in strawberry fruit assessed as inhibition of mycelial growth at 50 mg/l treated 2-3 hr before challenge measured after 5 days; details: read-out: GI
Botrytis cinerea [2] = assay: Fungicidal activity against anilinopyrimidine-sensitive Botryotinia fuckeliana KU-59 isolated from grape plant assessed as inhibition of mycelial growth at 100 mg/l after 4 days; details: KU-59, 96 h, read-out: GI
Botrytis cinerea [3] = assay: Fungicidal activity against anilinopyrimidine-sensitive Botryotinia fuckeliana KU-01 isolated from grape plant assessed as inhibition of mycelial growth at 0.3 mg/l after 4 days; details: KU-01, 96 h, read-out: GI
Botrytis cinerea [4] = assay: Fungicidal activity against anilinopyrimidine-sensitive Botryotinia fuckeliana KU-01 isolated from grape plant assessed as inhibition of mycelial growth at 0.1 mg/l after 4 days; details: KU-01, 96 h, read-out: GI
Botrytis cinerea [5] = assay: Fungicidal activity against anilinopyrimidine-resistant Botryotinia fuckeliana CH164.94 isolated from grape plant assessed as inhibition of mycelial growth at 100 mg/l after 4 days; details: CH164.94, 96 h, read-out: GI
Botrytis cinerea [6] = assay: Fungicidal activity against anilinopyrimidine-resistant Botryotinia fuckeliana CH15.93 isolated from grape plant assessed as inhibition of mycelial growth at 0.1 mg/l after 4 days; details: CH15.93, 96 h, read-out: GI
Botrytis cinerea [7] = assay: Fungicidal activity against anilinopyrimidine-resistant Botryotinia fuckeliana CH164.94 isolated from grape plant assessed as inhibition of mycelial growth at 30 mg/l after 4 days; details: CH164.94, 96 h, read-out: GI
Botrytis cinerea [8] = assay: Fungicidal activity against anilinopyrimidine-resistant Botryotinia fuckeliana CH164.94 isolated from grape plant assessed as inhibition of mycelial growth at 10 mg/l after 4 days; details: CH164.94, 96 h, read-out: GI
Botrytis cinerea [9] = assay: Fungicidal activity against anilinopyrimidine-resistant Botryotinia fuckeliana CH164.94 isolated from grape plant assessed as inhibition of mycelial growth at 3 mg/l after 4 days; details: CH164.94, 96 h, read-out: GI
Botrytis cinerea [10] = assay: Fungicidal activity against anilinopyrimidine-resistant Botryotinia fuckeliana CH164.94 isolated from grape plant assessed as inhibition of mycelial growth at 1 mg/l after 4 days; details: CH164.94, 96 h, read-out: GI
Botrytis cinerea [11] = assay: Fungicidal activity against anilinopyrimidine-resistant Botryotinia fuckeliana CH164.94 isolated from grape plant assessed as inhibition of mycelial growth at 0.3 mg/l after 4 days; details: CH164.94, 96 h, read-out: GI
Botrytis cinerea [12] = assay: Fungicidal activity against anilinopyrimidine-resistant Botryotinia fuckeliana CH164.94 isolated from grape plant assessed as inhibition of mycelial growth at 0.1 mg/l after 4 days; details: CH164.94, 96 h, read-out: GI
Botrytis cinerea [13] = assay: Fungicidal activity against anilinopyrimidine-resistant Botryotinia fuckeliana CH15.93 isolated from grape plant assessed as inhibition of mycelial growth at 100 mg/l after 4 days; details: CH15.93, 96 h, read-out: GI
Botrytis cinerea [14] = assay: Fungicidal activity against anilinopyrimidine-resistant Botryotinia fuckeliana CH15.93 isolated from grape plant assessed as inhibition of mycelial growth at 30 mg/l after 4 days; details: CH15.93, 96 h, read-out: GI
Botrytis cinerea [15] = assay: Fungicidal activity against anilinopyrimidine-resistant Botryotinia fuckeliana CH15.93 isolated from grape plant assessed as inhibition of mycelial growth at 10 mg/l after 4 days; details: CH15.93, 96 h, read-out: GI
Botrytis cinerea [16] = assay: Fungicidal activity against anilinopyrimidine-resistant Botryotinia fuckeliana CH15.93 isolated from grape plant assessed as inhibition of mycelial growth at 3 mg/l after 4 days; details: CH15.93, 96 h, read-out: GI
Botrytis cinerea [17] = assay: Fungicidal activity against anilinopyrimidine-resistant Botryotinia fuckeliana CH15.93 isolated from grape plant assessed as inhibition of mycelial growth at 1 mg/l after 4 days; details: CH15.93, 96 h, read-out: GI
Botrytis cinerea [18] = assay: Fungicidal activity against anilinopyrimidine-resistant Botryotinia fuckeliana CH15.93 isolated from grape plant assessed as inhibition of mycelial growth at 0.3 mg/l after 4 days; details: CH15.93, 96 h, read-out: GI
Botrytis cinerea [19] = assay: Fungicidal activity against anilinopyrimidine-resistant Botryotinia fuckeliana CH12.92 isolated from grape plant assessed as inhibition of mycelial growth at 0.1 mg/l after 4 days; details: CH12.92, 96 h, read-out: GI
Botrytis cinerea [20] = assay: Fungicidal activity against anilinopyrimidine-resistant Botryotinia fuckeliana CH12.92 isolated from grape plant assessed as inhibition of mycelial growth at 0.3 mg/l after 4 days; details: CH12.92, 96 h, read-out: GI
Botrytis cinerea [21] = assay: Fungicidal activity against anilinopyrimidine-resistant Botryotinia fuckeliana CH12.92 isolated from grape plant assessed as inhibition of mycelial growth at 1 mg/l after 4 days; details: CH12.92, 96 h, read-out: GI
Botrytis cinerea [22] = assay: Fungicidal activity against anilinopyrimidine-resistant Botryotinia fuckeliana CH12.92 isolated from grape plant assessed as inhibition of mycelial growth at 3 mg/l after 4 days; details: CH12.92, 96 h, read-out: GI
Botrytis cinerea [23] = assay: Fungicidal activity against anilinopyrimidine-resistant Botryotinia fuckeliana CH12.92 isolated from grape plant assessed as inhibition of mycelial growth at 10 mg/l after 4 days; details: CH12.92, 96 h, read-out: GI
Botrytis cinerea [24] = assay: Fungicidal activity against anilinopyrimidine-resistant Botryotinia fuckeliana CH12.92 isolated from grape plant assessed as inhibition of mycelial growth at 30 mg/l after 4 days; details: CH12.92, 96 h, read-out: GI
Botrytis cinerea [25] = assay: Fungicidal activity against anilinopyrimidine-resistant Botryotinia fuckeliana CH12.92 isolated from grape plant assessed as inhibition of mycelial growth at 100 mg/l after 4 days; details: CH12.92, 96 h, read-out: GI

## CC#Cc1cc(C)nc(Nc2ccccc2)n1 [MEPANIPYRIM]
Botrytis cinerea [1]
  inhibition of growth at 50 µg/mL: 0%
Botrytis cinerea [2]
  inhibition of growth at 100 µg/mL: 100%
Botrytis cinerea [3]
  inhibition of growth at 0.3 µg/mL: 100%
Botrytis cinerea [4]
  inhibition of growth at 0.1 µg/mL: 75.5%
Botrytis cinerea [5]
  inhibition of growth at 100 µg/mL: 70.8%
Botrytis cinerea [6]
  inhibition of growth at 0.1 µg/mL: 0%
Botrytis cinerea [7]
  inhibition of growth at 30 µg/mL: 66.2%
Botrytis cinerea [8]
  inhibition of growth at 10 µg/mL: 67.1%
Botrytis cinerea [9]
  inhibition of growth at 3 µg/mL: 57.9%
Botrytis cinerea [10]
  inhibition of growth at 1 µg/mL: 38.3%
Botrytis cinerea [11]
  inhibition of growth at 0.3 µg/mL: 0%
Botrytis cinerea [12]
  inhibition of growth at 0.1 µg/mL: 0%
Botrytis cinerea [13]
  inhibition of growth at 100 µg/mL: 75.4%
Botrytis cinerea [14]
  inhibition of growth at 30 µg/mL: 74.1%
Botrytis cinerea [15]
  inhibition of growth at 10 µg/mL: 72.6%
Botrytis cinerea [16]
  inhibition of growth at 3 µg/mL: 65.7%
Botrytis cinerea [17]
  inhibition of growth at 1 µg/mL: 34.9%
Botrytis cinerea [18]
  inhibition of growth at 0.3 µg/mL: 0%
Botrytis cinerea [19]
  inhibition of growth at 0.1 µg/mL: 0%
Botrytis cinerea [20]
  inhibition of growth at 0.3 µg/mL: 19.8%
Botrytis cinerea [21]
  inhibition of growth at 1 µg/mL: 42.6%
Botrytis cinerea [22]
  inhibition of growth at 3 µg/mL: 60.1%
Botrytis cinerea [23]
  inhibition of growth at 10 µg/mL: 65.7%
Botrytis cinerea [24]
  inhibition of growth at 30 µg/mL: 63.2%
Botrytis cinerea [25]
  inhibition of growth at 100 µg/mL: 70.4%
